# Values quoted from earlier work as cited in patent US8633167B2, “Method for the protection of trees” (Syngenta Crop Protection LLC, priority 2006, dated 2014).
# Tests used:
# [1] = tested on: SPB; conditions: applied to foliage at two different rates; cited from earlier work
# [2] = tested on: SPB; conditions: applied by Mauget Injectors; cited from earlier work
SMILES,SPB larval survival [1],"effect on eggs, pupae, callow or parent adults [1]",egg gallery length [2],subsequent brood production [2]
COP(=O)(NC(C)=O)SC (stereo not shown) [acephate],reduce,no effect,–,–
COP(=O)(OC)O/C(C)=C/C(=O)N(C)C [dicrotophos],–,–,significantly reduce,significantly reduce
